Reference: patent publication US7842695B2, “Substituted pyrazole compounds” (Merck Patent GmbH, priority 2003, dated 2010)

What was measured:
[1] = target: 5-HT2A receptors (UniProt P14842); test: in-vitro affinity to 5-HT2A receptors, [3H]ketanserine displacement (Example A1); assay type: binding
Source text: The 5-HT2A receptors are exposed both to [^3H]ketanserine (a substance known for its affinity to the receptor) and also to the test compound. The decrease in the affinity of [^3H]ketanserine to the receptor is an indication of the affinity of the test substance to the 5-HT2A receptor.

[2] = target: T1, 5 HT2C receptor (Homo sapiens, UniProt P28335); test: affinity to the 5 HT2C receptor; assay type: binding
T1 sequence (P28335 33-458): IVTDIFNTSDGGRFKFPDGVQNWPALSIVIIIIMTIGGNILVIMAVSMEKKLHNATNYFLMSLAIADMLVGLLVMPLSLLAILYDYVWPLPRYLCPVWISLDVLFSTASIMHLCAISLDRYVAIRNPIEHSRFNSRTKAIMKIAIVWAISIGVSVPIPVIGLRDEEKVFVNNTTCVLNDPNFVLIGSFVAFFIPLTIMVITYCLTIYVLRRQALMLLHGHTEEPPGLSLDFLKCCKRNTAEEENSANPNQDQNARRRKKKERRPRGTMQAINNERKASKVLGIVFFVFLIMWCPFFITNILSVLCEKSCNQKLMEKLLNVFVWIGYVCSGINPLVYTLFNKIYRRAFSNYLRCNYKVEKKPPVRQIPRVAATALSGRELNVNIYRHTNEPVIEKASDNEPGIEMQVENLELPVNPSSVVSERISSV

SMILES	IC50 [1] [µM]	IC50 [2] [µM]
CCN(CC)Cc1cnn(-c2ccc(-c3ccc(OC)cc3)cc2)c1-c1ccco1 [Example 601, Diethyl-[5-furan-2-yl-1-(4′-methoxybiphenyl-4-yl)-1H-pyrazol-4-ylmethyl]amine]	0.026	1
CN1CCN(Cc2cnn(-c3ccc(-c4ccncc4)cc3)c2-c2ccccc2F)CC1 [Example 661, 1-[5-(2-Fluorophenyl)-1-(4-pyridin-4-ylphenyl)-1H-pyrazol-4-ylmethyl]-4-methylpiperazine]	0.077	1
CCN1CCN(Cc2cnn(-c3ccc(-c4cccc(F)c4)cc3)c2-c2ccco2)CC1 [Example 570, 1-Ethyl-4-[1-(3′-fluorobiphenyl-4-yl)-5-furan-2-yl-1H-pyrazol-4-ylmethyl]piperazine]	0.012	0.5
CN(C)CCCN(C)Cc1cnn(-c2ccc(-c3ccc(F)cc3)cc2)c1-c1ccco1 [Example 659, N-[1-(4′-Fluorobiphenyl-4-yl)-5-furan-2-yl-1H-pyrazol-4-ylmethyl]-N,N′,N′-trimethylpropane-1,3-diamine]	0.076	0.81
CCN1CCN(Cc2cnn(-c3ccc(-c4ccc(F)cc4)cc3)c2-c2occc2C)CC1 [Example 536, 1-Ethyl-4-[1-(4′-fluorobiphenyl-4-yl)-5-(3-methyl-2-furanyl)-1H-pyrazol-4-ytmethyl]piperazine]	0.003	1
Cc1ccoc1-c1c(CN(C)C)cnn1-c1ccc(-c2ccc(F)cc2)cc1 [Example 553, [1-(4′-Fluorobiphenyl-4-yl)-5-(3-methyl-2-furanyl)-1H-pyrazol-4-ylmethyl]dimethylamine]	0.0065	0.36
OC1CCN(Cc2cnn(-c3ccc(-c4ccc(F)cc4)cn3)c2-c2ccco2)C1 (centres unmarked) [Example 614, 1-{1-[5-(4-Fluorophenyl)pyridin-2-yl]-5-furan-2-yl-1H-pyrazol-4-ylmethyl}pyrrolidin-3-ol]	0.032	1
Fc1ccccc1-c1c(CN2CCNCC2)cnn1-c1ccc(C(F)(F)F)cn1 [Example 588, 1-[5-(2-Fluorophenyl)-1-(5-trifluoromethylpyridin-2-yl)-1H-pyrazol-4-ylmethyl]piperazine]	0.02	1
CN1CCN(Cc2cnn(-c3ccc(-c4ccsc4)cc3)c2-c2ccccc2F)CC1 [Example 574, 1-[5-(2-Fluorophenyl)-1-(4-thiophen-3-ylphenyl)-1H-pyrazol-4-ylmethyl]-4-methylpiperazine]	0.014	0.52
CN1CCN(Cc2cnn(-c3ccc(-c4ccsc4)cc3)c2-c2ccccc2)CC1 [Example 610, 1-Methyl-4-[5-phenyl-1-(4-thiophen-3-ylphenyl)-1H-pyrazol-4-ylmethyl]piperazine]	0.031	0.49
CN1CCC(N(C)Cc2cnn(-c3ccc(-c4ccc(F)cc4)cc3)c2-c2ccco2)C1 (centres unmarked) [Example 529, [1-(4′-Fluorobiphenyl-4-yl)-5-furan-2-yl-1H-pyrazol-4-ylmethyl]methyl-(1-methylpyrrolidin-3-yl)amine]	0.000514	0.434
Fc1ccc(-c2ccc(-n3ncc(CN4CCN(CCN5CCCC5)CC4)c3-c3ccco3)cc2)cc1 [Example 633, 1-[1-(4′-Fluorobiphenyl-4-yl)-5-furan-2-yl-1H-pyrazol-4-ylmethyl]-4-(2-pyrrolidin-1-ylethyl)piperazine]	0.041	1
OC1CCN(Cc2cnn(-c3ccc(-c4ccc(F)cc4)cc3)c2-c2ccccc2Cl)C1 (centres unmarked) [Example 636, 1-[5-(2-Chlorophenyl)-1-(4′-fluorobiphenyl-4-yl)-1H-pyrazol-4-ylmethyl]pyrrolidin-3-ol]	0.042	1
c1coc(-c2c(CN3CCN(C4CCCC4)CC3)cnn2-c2ccc(-c3ccc4c(c3)OCO4)cc2)c1 [Example 569, 1-[1-(4-Benzo-1,3-dioxol-5-ylphenyl)-5-furan-2-yl-1H-pyrazol-4-ylmethyl]-4-cyclopentylpiperazine]	0.012	1
CCN1CCN(Cc2cnn(-c3ccc(-c4ccc(F)cc4)cn3)c2-c2ccco2)CC1 [Example 583, 1-Ethyl-4-{1-[5-(4-fluorophenyl)pyridin-2-yl]-5-furan-2-yl-1H-pyrazol-4-ylmethyl}piperazine]	0.018	1
CN(C)Cc1cnn(-c2ccc(-c3ccc4c(c3)OCCO4)cc2)c1-c1ccco1 [Example 540, {1-[4-(2,3-Dihydrobenzo-1,4-dioxin-6-yl)phenyl]-5-furan-2-yl-1H-pyrazol-4-ylmethyl}dimethylamine]	0.0036	0.18
CN1CCN(Cc2cnn(-c3ccc(-c4ccc(F)cc4)cc3)c2-c2ccoc2)CC1 [Example 586, 1-[1-(4′-Fluorobiphenyl-4-yl)-5-furan-3-yl-1H-pyrazol-4-ylmethyl]-4-methylpiperazine]	0.019	1
CN1CCN(Cc2cnn(-c3ccc(-c4ccc(F)cc4)cn3)c2-c2ccco2)CC1 [Example 590, 1-{1-[5-(4-Fluorophenyl)pyridin-2-yl]-5-furan-2-yl-1H-pyrazol-4-ylmethyl}-4-methylpiperazine]	0.02	1
COc1ccc(-c2c(CN3CCN(CCN(C)C)CC3)cnn2-c2ccc(-c3ccc(F)cc3)cc2)cc1 [Example 607, (2-{4-[1-(4′-Fluorobiphenyl-4-yl)-5-(4-methoxyphenyl)-1H-pyrazol-4-ylmethyl]-1-piperazinyl}ethyl)dimethylamine]	0.029	1
CN1CCN(Cc2cnn(-c3ccc(-c4cc(F)c(OC(F)(F)F)c(F)c4)cc3)c2-c2ccccc2F)CC1 [Example 623, 1-[1-(3′,5′-Difluoro-4′-trifluoromethoxybiphenyl-4-yl)-5-(2-fluorophenyl)-1H-pyrazol-4-ylmethyl]-4-methylpiperazine]	0.035	0.18
CCN1CCN(Cc2cnn(-c3ccc(-c4ccc(OC)cc4)cc3)c2-c2ccco2)CC1 [Example 551, 1-Ethyl-4-[5-furan-2-yl-1-(4′-methoxybiphenyl-4-yl)-1H-pyrazol-4-ylmethyl]piperazine]	0.0061	0.495
CN1CCN(Cc2cnn(-c3ccc(-c4ccc(F)cc4)cc3)c2-c2cccc(Cl)c2)CC1 [Example 619, 1-[5-(3-Chlorophenyl)-1-(4′-fluorobiphenyl-4-yl)-1H-pyrazol-4-ylmethyl]-4-methylpiperazine]	0.034	1
